This is an account of results in US20230303491A1, “DONEPEZIL ETHER PALMITATE OR PHARMACEUTICALLY ACCEPTABLE SALT THEREOF” (CHONG KUN DANG PHARMACEUTICAL CORP., priority 2020, published 2023).

This data set is described as follows: Pharmacokinetic evaluation: donepezil concentration in plasma after intramuscular injection of solution phase compositions. Particulars: SD rats; for release pattern: compared among DEP, DEM, DEPD, DEHD and DES formulations (40 mg/kg as donepezil) or with donepezil. The class given is in vivo. How it is done: The main ingredients of Table 1 above, castor oil, and benzyl benzoate were mixed according to the components and amounts of Table 2 below, and stirred at room temperature for 0.5 to 3 hours to prepare solution phase compositions.
Four male SD rats with an average weight of 300 g were intramuscularly injected with a dose of 4 mg/kg of donepezil in the formulation of donepezil (D) and 40 mg/kg of donepezil each in the DEP, DEM, DEPD, DEHD, and DES formulations, and the concentrations of donepezil in plasma samples of SD rats were analyzed using LC-MS/MS.

For `CCCCCCCCCCCCCCOCC(=O)OC1=C(CC2CCN(Cc3ccccc3)CC2)Cc2cc(OC)c(OC)cc21` [DEP, 2-((1-benzylpiperidin-4-yl)methyl)-5,6-dimethoxy-1H-inden-3-yl 2-(tetradecyloxy) acetate], the release pattern entry is listed as “most preferred for the sustained-release composition”. Under “D 4 mg/kg, DEP 40 mg/kg as donepezil”, the “release of drug immediately after administration” value is “without rapid release of drug after administration”. Besides, the release pattern entry (listed as donepezil ether palmitate (DEP)) is given as “better release pattern than that of donepezil”.
